From a melting point compilation (Tetko et al.; mined from patent text by program, amines drawn as free bases though some values may be those of a salt)

Row | Compound | melting point
1 | Nc1ncnc2c1c(-c1ccc(Oc3ccccc3)cc1)cn2C1COCC1O (centres undefined) | 234 to 236 °C
2 | Cn1c(=O)c2c(ncn2CC(O)COC(=O)COc2ccc(Cl)cc2)n(C)c1=O (centres undefined) | 81 to 83 °C
3 | CN(c1cc(=S)ss1)C1CCCCC1 | 107 °C
4 | O=C(OCCBr)N1CCCSC1=C[N+](=O)[O-] | 79 to 81 °C
5 | CS(=O)(=O)CCC(=O)Nc1ccc(OCC(O)CO)cc1 (centres undefined) | 160 to 162 °C
6 | CCCOc1ncc(NC(=O)N(C)C)cc1-c1nc2c(CCC)nn(C)c2c(=O)[nH]1 | 219 to 220 °C
7 | COc1c(Cl)cc(Br)cc1Cl | 67 to 68 °C
8 | O=c1[nH]c(CCN2CCCC(O)C2)cc2ccccc12 (centres undefined) | 192 to 193 °C
9 | C=C(C)C(=O)OCCOC(Cl)C(Cl)(Cl)Cl (centres undefined) | 44 to 45 °C
10 | Oc1ccc([C@H]2CC[C@@H](NCCOc3ccccc3)CC2)cc1 | 149 to 154 °C
11 | O=C(CO)c1cc(O)c(O)c([N+](=O)[O-])c1 | 208 to 210 °C
12 | CCOC(=O)CCc1cc(-c2ccccc2)nn1Cc1ccc(Cl)cc1Cl | 91 to 93 °C
13 | CC(C)(C)NC(=O)[C@@H](N)C(C)(C)C | 78 to 80 °C
14 | Cn1cc(C(=O)NCCC2CCN(S(=O)(=O)NC(=O)NC3CCCCC3)CC2)c(=O)n(C)c1=O | 205 to 207 °C
15 | COc1ccc(-c2c(N[C@H](C)c3ccccc3)c(=O)c2=O)cc1 | 159 to 160 °C
16 | CN1CCc2c(F)c(F)c(N)c3c(=O)c(C(=O)O)cn1c23 | > 290 °C
17 | CCSc1cc(C)nc(SCC)c1NC(=O)CCCCCCSc1nc2cccc(C(F)(F)F)c2o1 | 127 to 128 °C
18 | CCCCCCCCCCCCOc1ccc(C(C)=O)o1 | 66 to 67 °C
19 | CS(=O)(=O)c1ccc(-c2cnn(Cc3ccccc3)c(=S)c2-c2ccc(F)cc2)cc1 | 88 to 90 °C
20 | O=C(CN1CCC(Cc2ccc(F)cc2)CC1)Nc1ccc2[nH]c(=O)oc2c1 | 228 to 231 °C
21 | CC1(C)CCC(C)(C)c2cc3c(cc21)C(=O)C=CC3=O | 161 to 163 °C
22 | CCOc1ccc(C(=O)NCc2ccc3c(c2)C(=O)N(C2(C)CCC(=O)NC2=O)C3=O)nc1 (centres undefined) | 145 to 147 °C
23 | CN1CCC(c2cccc3c2C[C@H](NC(=O)c2ccc(C(F)(F)F)cc2)CC3)CC1 | 163 to 166 °C
24 | C=C1CCc2c(c3ccccc3n2C)C1=O | 127 to 129 °C
25 | C=Cc1ccc(Nc2nc(Cl)nc(OC)n2)cc1 | 118 to 122 °C

Row | Compound | melting point
26 | Cc1c(NC(=O)C(CS)Cc2ccccc2)cccc1C(=O)O (centres undefined) | 179 to 181 °C
27 | N#CNC(=NCCN1CCC(C(=O)c2ccc(F)cc2)CC1)Oc1ccccc1 | 134 to 136 °C
28 | CCCCCCC(=N)NC(=S)Nc1ccc(Br)cc1Br | 86 to 88 °C
29 | Cc1cc(Cl)ccc1Oc1ccc([N+](=O)[O-])cc1C#N | 144 to 146 °C
30 | O=C(Nc1ccc(Oc2ccnc(NC3CCC3)n2)c2ccccc12)c1cc(F)cc(N2CCOCC2)c1 | 110 to 112 °C
31 | CCc1sc(N2C(=O)c3ccccc3C2=O)c(C(=O)c2ccc(Cl)cc2)c1C | 115 to 117 °C
32 | Fc1ccc(-c2cccc(-c3cn([C@H]4CN5CCC4CC5)nn3)c2)cn1 | 164 °C
33 | CCCC1(S(=O)(=O)CCC(=O)OC)c2ccccc2-c2ccccc21 | 74 to 77 °C
34 | CC(C)(C)NS(=O)(=O)c1sc([Si](C)(C)C)cc1C(F)=C(F)C(F)(F)F | 92 to 94 °C
35 | CN(c1ccc(O)cc1)c1nc2cc(Cl)ccc2s1 | 238 to 240 °C
36 | COC(=O)c1ccc(C(O)(c2ccc3[nH]c(=O)cc(-c4cccc(Cl)c4)c3c2)c2cncn2C)cc1 (centres undefined) | 255 °C
37 | CCCC(CC)c1nc(C)nc2c1c(C)c(C)n2-c1c(C)cc(C)cc1C (centres undefined) | 100 to 102 °C
38 | COc1ccc(C(c2ccc(N(C)C)cc2)c2ccc(N(C)C)cc2C(=O)O)cc1 (centres undefined) | 185 to 190 °C
39 | Nc1ncnc2c1ncn2OCCOCP(=O)(O)O | 241 to 244 °C
40 | CC1CCC(=Nc2ccccc2)N1Cc1c[nH]c2ccccc12 (centres undefined) | 88 to 92 °C
41 | CCCC(=O)COS(=O)(=O)c1c(C)cc(C)cc1C | 57.5 to 58.5 °C
42 | CCC(=O)NCC1CC1c1c(Cl)ccc2nn(C)cc12 (centres undefined) | 152 to 153 °C
43 | CC(CO)NCc1ccc(-c2cc3ncnc(Nc4ccc5[nH]ccc5c4)c3s2)cc1 (centres undefined) | 160 to 175 °C
44 | CCCCNc1cccnc1S(=O)(=O)NC(=O)Nc1nc(OC)cc(OC)n1 | 118 to 119 °C
45 | CC(C)n1cc(-c2ccc(Oc3ccccc3)c(CO)c2)c2c(N)ncnc21 | 92 to 94 °C
46 | COc1nc(C(F)(F)C(F)(F)F)cc(=O)n1-c1cc(OC(C)C)c(Cl)cc1F | 79 to 81 °C
47 | Cn1c(C(F)(F)F)cc(=O)n(-c2ccc3snc(C(C)(C)C(N)=O)c3c2)c1=O | 192 to 196 °C
48 | Fc1ccc2nc[nH]c2c1 | 194 to 196 °C
49 | CS(=O)(=O)c1ccc(-n2ncc(C#N)c2-c2ccc(-c3ccco3)cc2)cc1 | 229 to 230 °C
